Test results taken from the Kinase Knowledgebase extract (Sharma et al. 2016).

Target: PIK3CD (Human) (UniProt O00329)
Assay: Cell-Free Assay

PIK3CD (Human), sequence (O00329 whole entry, looked up): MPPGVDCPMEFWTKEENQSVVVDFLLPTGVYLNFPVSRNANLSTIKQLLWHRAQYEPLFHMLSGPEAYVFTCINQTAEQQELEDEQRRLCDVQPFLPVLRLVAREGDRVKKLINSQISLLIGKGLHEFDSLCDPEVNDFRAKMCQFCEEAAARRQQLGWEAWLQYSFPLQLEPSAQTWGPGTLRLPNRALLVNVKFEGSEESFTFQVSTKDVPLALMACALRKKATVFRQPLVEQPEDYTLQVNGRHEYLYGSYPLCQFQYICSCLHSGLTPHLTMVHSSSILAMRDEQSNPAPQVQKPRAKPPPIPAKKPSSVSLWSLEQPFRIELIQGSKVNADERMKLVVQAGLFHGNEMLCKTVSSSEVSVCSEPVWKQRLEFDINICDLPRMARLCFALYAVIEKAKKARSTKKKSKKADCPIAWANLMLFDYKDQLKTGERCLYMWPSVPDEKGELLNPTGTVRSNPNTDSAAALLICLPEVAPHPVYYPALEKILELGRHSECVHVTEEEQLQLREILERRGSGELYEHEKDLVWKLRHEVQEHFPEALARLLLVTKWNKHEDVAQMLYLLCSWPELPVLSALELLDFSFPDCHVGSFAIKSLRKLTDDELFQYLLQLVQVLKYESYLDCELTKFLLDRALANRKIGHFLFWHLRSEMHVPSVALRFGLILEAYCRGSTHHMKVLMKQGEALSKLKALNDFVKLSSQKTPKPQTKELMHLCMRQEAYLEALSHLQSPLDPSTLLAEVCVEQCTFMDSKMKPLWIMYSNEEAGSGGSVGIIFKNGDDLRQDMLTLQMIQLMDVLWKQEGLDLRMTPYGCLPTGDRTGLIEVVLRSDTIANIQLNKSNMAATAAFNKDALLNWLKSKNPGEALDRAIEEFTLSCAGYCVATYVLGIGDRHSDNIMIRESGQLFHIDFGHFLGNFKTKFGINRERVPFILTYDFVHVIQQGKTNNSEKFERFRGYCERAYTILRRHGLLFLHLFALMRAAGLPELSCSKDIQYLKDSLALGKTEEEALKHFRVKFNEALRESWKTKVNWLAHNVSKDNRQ

Row | SMILES | IC50 [nM]
1 | Cc1ccn2nc([C@H](C)Nc3ncnc(N)c3C#N)nc(Oc3cccc(NCCN(C)C)c3)c12 | 10
2 | Cc1ccn2nc([C@H](C)Nc3ncnc(N)c3C#N)nc(-c3ccc(O)c(C(C)(C)O)c3)c12 | 8
3 | Cc1ccn2nc(Cn3nc(-c4cc(O)cc(F)c4)c4c(N)ncnc43)nc(N(CCN(C)C)c3cccc(O)c3)c12 | 0.1
4 | Cc1ccn2nc(Cn3nc(-c4cc(O)cc(F)c4)c4c(N)ncnc43)nc(OC3CCN(C(C)C)CC3)c12 | 1
5 | Cc1ccn2nc(Cn3nc(-c4cc(O)cc(F)c4)c4c(N)ncnc43)nc(N3CCCNCC3)c12 | 6.1
6 | Cc1ccn2nc([C@H](C)Nc3ncnc(N)c3C#N)nc(Oc3cccc(CO)c3)c12 | 7
7 | COc1ncc(-c2nc([C@H](C)Nc3ncnc(N)c3C#N)nn3ccc(C)c23)cc1NS(C)(=O)=O | 7
8 | Cc1ccn2nc([C@H](C)Nc3ncnc(N)c3C#N)nc(N3CCC(CN4CCCC4)CC3)c12 | 6.2
9 | COc1ccc(S(=O)(=O)Nc2cc(-c3nc([C@H](C)Nc4ncnc(N)c4C#N)nn4ccc(C)c34)cnc2O)cc1 | 10
10 | Cc1ccn2nc(Cn3nc(-c4cc(O)cc(F)c4)c4c(N)ncnc43)nc(N3C[C@@H]4CC[C@H]3CN4S(C)(=O)=O)c12 | 5.9
11 | Cc1ccn2nc(Cn3nc(-c4cc(O)cc(F)c4)c4c(N)ncnc43)nc(N3CCSCC3)c12 | 2.7
12 | Cc1ccn2nc(Cn3nc(-c4cc(O)cc(F)c4)c4c(N)ncnc43)nc(OCC3CCOCC3)c12 | 2
13 | Cc1cc(N(C)C)cc(C2CCN(c3cc(-c4nc([C@H](C)Nc5ncnc(N)c5C#N)nn5ccc(C)c45)ccn3)CC2)n1 | 2.8
14 | Cc1ccn2nc(Cn3nc(-c4cc(O)cc(F)c4)c4c(N)ncnc43)nc(N3C[C@@H](C)O[C@@H](C)C3)c12 | 1
15 | Cc1ccn2nc([C@H](C)Nc3ncnc4[nH]cc(-c5cnn(C)c5)c34)nc(N3C[C@@H](C)N[C@@H](C)C3)c12 | 2
16 | Cc1ccn2nc([C@H](Cc3cccc(O)c3)Nc3ncnc(N)c3C#N)nc(N3C[C@@H](C)N[C@@H](C)C3)c12 | 8.8

Row | SMILES | IC50 [nM]
17 | Cc1ccn2nc([C@H](C)Nc3ncnc4[nH]cc(C#N)c34)nc(N(CCN(C)C)c3cccc(O)c3)c12 | 1
18 | Cc1ccn2nc(Cn3nc(-c4cc(O)cc(F)c4)c4c(N)ncnc43)nc(NCCN3CCCC3)c12 | 1.1
19 | Cc1cc(-c2nc([C@H](C)Nc3ncnc(N)c3C#N)nn3cccc23)cc(C)c1C(=O)NCCO | 11.4
20 | Cc1ccn2nc([C@H](C)Nc3ncnc(N)c3-c3cc(O)cc(F)c3)nc(OCC3CCOCC3)c12 | 62
21 | Cc1ccn2nc(Cn3nc(-c4cc(O)cc(F)c4)c4c(N)ncnc43)nc(OCCN3CCOCC3)c12 | 0.8
22 | Cc1ccn2nc([C@H](C)Nc3ncnc(N)c3C#N)nc(-c3cc(O)cc(C(F)(F)F)c3)c12 | 1
23 | Cc1cc(C(=O)N(C)Cc2cccc(O)c2)cc(-c2nc([C@H](C)Nc3ncnc(N)c3C#N)nn3ccc(C)c23)c1 | 1.7
24 | C[C@H](Nc1ncnc(N)c1C#N)c1nc(OCC2CCOCC2)c2c(C#N)ccn2n1 | 31
25 | Cc1ccn2nc(Cn3nc(-c4cc(O)cc(F)c4)c4c(N)ncnc43)nc(OCCN3CCCC3=O)c12 | 2.5
26 | Cc1cc(C(=O)NCc2ccc(C(=O)NCCO)cc2)cc(-c2nc([C@H](C)Nc3ncnc(N)c3C#N)nn3ccc(C)c23)c1 | 2.6
27 | CC(=O)N1[C@H](C)CN(c2nc([C@H](C)Nc3ncnc(N)c3C#N)nn3ccc(C)c23)C[C@@H]1C | 45.4
28 | Cc1cc(C(=O)NCCCCCN(C)CCO)cc(-c2nc([C@H](C)Nc3ncnc(N)c3C#N)nn3ccc(C)c23)c1 | 3.1
29 | Cc1cc(C(=O)O)cc(-c2nc([C@H](C)Nc3ncnc(N)c3C#N)nn3ccc(C)c23)c1 | 0.4
30 | C[C@H](Nc1ncnc(N)c1C#N)c1nc(OCC2CCOCC2)c2c(Br)ccn2n1 | 6
31 | Cc1ccn2nc([C@H](C)Nc3ncnc(N)c3C#N)nc(-c3ccnc(N4CCC(N(C)C)CC4)c3)c12 | 5.9

Further compounds by falling IC50, results first:

Row | IC50 [nM] | SMILES
32 | 76.7 | Cc1cc(C(=O)NCc2ccc(S(N)(=O)=O)cc2)cc(-c2nc([C@H](C)Nc3ncnc(N)c3C#N)nn3cccc23)c1
33 | 62 | CC(C)Oc1nc([C@H](C)Nc2ncnc(N)c2C#N)nn2cccc12
34 | 27 | C[C@H](Nc1ncnc(N)c1C#N)c1nc(OCC2CCNCC2)c2cccn2n1
35 | 19 | COc1cccc(N(C)c2nc([C@H](C)Nc3ncnc(N)c3C#N)nn3ccc(C)c23)c1
36 | 14.6 | Cc1ccn2nc([C@H](C)Nc3ncnc(N)c3C#N)nc(N[C@@H](Cc3ccc(O)cc3)C(N)=O)c12
37 | 13 | Cc1ccn2nc([C@H](C)Nc3ncnc(N)c3C#N)nc(N(CCN3CCOCC3)c3cccc(O)c3)c12
38 | 10.6 | CN[C@H]1CCCC[C@@H]1N(C)c1nc([C@H](C)Nc2ncnc(N)c2C#N)nn2ccc(C)c12
39 | 9.9 | Cc1cc(-c2nc([C@H](C)Nc3ncnc(N)c3C#N)nn3ccc(C)c23)n(C)n1
40 | 6.4 | Cc1ccn2nc([C@H](C)Nc3ncnc(N)c3C#N)nc(N(CCN(C)C)Cc3ccc(N4CCC(N(C)C)CC4)cc3)c12
41 | 6.2 | Cc1ccn2nc([C@H](C)Nc3ncnc4[nH]cc(-c5cc(O)cc(NS(=O)(=O)CCN(C)C)c5)c34)nc(N3C[C@@H](C)N[C@@H](C)C3)c12
42 | 6.1 | CNCCNc1nc([C@H](C)Nc2ncnc(N)c2C#N)nn2ccc(C)c12
43 | 6 | Cc1ccn2nc([C@H](C)Nc3ncnc(N)c3C#N)nc(OC3CCN(C(C)C)CC3)c12
44 | 3.6 | Cc1ccn2nc([C@H](C)Nc3ncnc(N)c3C#N)nc(-c3cc(O)cc(C(=O)NCCN(C)C)c3)c12
45 | 2.9 | Cc1ccn2nc([C@H](C)Nc3ncnc(N)c3C#N)nc(N(CCN(C)C)Cc3ccc(N4CCN(C)CC4)cc3)c12
46 | 2.8 | Cc1ccn2nc(Cn3nc(-c4cc(O)cc(F)c4)c4c(N)ncnc43)nc(N3CCC(C(N)=O)CC3)c12
47 | 2.5 | Cc1ccn2nc(Cn3nc(-c4cc(O)cc(F)c4)c4c(N)ncnc43)nc(N3CCS(=O)(=O)CC3)c12
48 | 2 | Cc1ccn2nc([C@H](C)Nc3ncnc(N)c3C#N)nc(-c3cc(O)cc(C(=O)NC4CC4)c3)c12
49 | 1.9 | Cc1ccn2nc([C@H](C)Nc3ncnc(N)c3C#N)nc(CCN3CCOCC3)c12
50 | 1.3 | Cc1ccn2nc([C@H](C)Nc3ncnc(N)c3C#N)nc(-c3cc(O)cc(C#N)c3)c12
51 | 1.2 | CCOC(=O)C1CCN(CCOc2nc(Cn3nc(-c4cc(O)cc(F)c4)c4c(N)ncnc43)nn3ccc(C)c23)CC1
52 | 1 | Cc1ccn2nc(Cn3nc(-c4cc(O)cc(F)c4)c4c(N)ncnc43)nc(N3C[C@@H]4C[C@H]3CN4)c12
53 | 0.9 | Cc1ccn2nc(Cn3nc(-c4cncc(O)c4)c4c(N)ncnc43)nc(N3C[C@@H](C)N[C@@H](C)C3)c12
54 | 0.6 | Cc1ccn2nc(Cn3nc(-c4cc(O)cc(F)c4)c4c(N)ncnc43)nc(OCCN3CCC(C(=O)O)CC3)c12
55 | 0.5 | Cc1ccn2nc(Cn3nc(-c4cc(O)cc(NS(C)(=O)=O)c4)c4c(N)ncnc43)nc(N3C[C@@H](C)N[C@@H](C)C3)c12
56 | 0.5 | COc1ncc(-c2c[nH]c3ncnc(N[C@@H](C)c4nc(N5C[C@@H](C)O[C@@H](C)C5)c5c(C)ccn5n4)c23)cc1NS(C)(=O)=O
57 | 0.5 | Cc1ccn2nc([C@H](C)Nc3ncnc(N)c3C#N)nc(N3C[C@@H](C)N[C@@H](C)C3)c12
58 | 0.3 | Cc1cc(-c2nc([C@H](C)Nc3ncnc(N)c3C#N)nn3ccc(C)c23)cc(C)c1O
